Measured values taken from paper PMC6151508, “Development of Novel Nrf2/ARE Inducers Bearing Pyrazino[2,1-a]isoquinolin Scaffold with Potent In Vitro Efficacy and Enhanced Physicochemical Properties” (Molecules : A Journal of Synthetic Chemistry and Natural …, 2017).
Values after ≈ are worked out from the molar mass of the structure shown.

Key:
[1] = test system: antioxidant response element (ARE); set-up: method as in PMID 24053646; settings: 10 μM, luciferase reporter assay; cited from earlier work
NQO1 [2] = test system: NQO1; set-up: method as in PMID 24053646; settings: HCT116; cited from earlier work
colorectal adenomas = test system: colorectal adenomas; set-up: method as in PMID 24053646; settings: AOM-DSS mouse model; cited from earlier work
Nrf2 [3] = test system: Nrf2; set-up: method as in PMID 24053646; settings: HCT116; cited from earlier work
heme oxygenase-1 (HO-1) = test system: heme oxygenase-1 (HO-1); set-up: method as in PMID 24053646; settings: HCT116; cited from earlier work
[4] = test system: antioxidant response element (ARE); assay: ARE luciferase reporter assay in HepG2-ARE-C8 cells; type: cell-based; settings: HepG2-ARE-C8, 12 h of treatment, mean ± SD n = 3; for fold induction at 0.1 µM / fold induction at 1 µM / fold induction at 5 µM / fold induction at 10 µM / fold induction at 50 µM / fold induction at 100 µM: read-out: ARE Inductivity in Luciferase Reporter Assay (induction fold)
Method: (§1) All the derivatives were evaluated for their ability to induce ARE in HepG2-ARE-C8 cell (HepG2 cells stably transfected with a luciferase reporter) by ARE luciferase reporter assay, and they were compared to the lead compound 2. At the same time, cytotoxicity studies were performed by the MTT assay against the HCT116 cells. The results of cytotoxic activity in vitro were expressed as the IC50 [18]. Because those compounds were designed for chemoprevention, they should not be cytotoxic.
HepG2-ARE-C8 cells (4 × 10^4 cells/well) were incubated overnight in 96-well plates, and then treated with different concentrations of test compounds. tBHQ was used as a positive control, DMSO was used as a negative control, and the luciferase cell culture lysis reagent was used as a blank. The medium was removed after 12 h treatment. Then, the cells were harvested in the luciferase cell culture lysis reagent together with 100 μL of cold PBS. Then, centrifuging the solution and 20 μL of the supernatant was used for determining the luciferase activity. The luciferase activity was measured by a Luminoskan Ascent (Thermo Scientific, Waltham, MA, USA). The data were obtained in triplicate and expressed as fold induction over the control. Induction fold = (RLUtest − RLUblank)/(RLUDMSOcontrol − RLUblank). RLU = relative light unit l.

[5] = MTT cell viability (cytotoxicity) assay; type: cell-based; settings: human, HCT116 cells
Method: as §1
Cell viabilities were determined by using 3-[4,5-dimethylthiazol-2-yl]-2,5-diphenyltetrazolium bromide (MTT) assay. MTT was dissolved in (phosphate buffered solution) PBS to a concentration of 5 mg/mL. HCT116 cells (8 × 10^3 cells/well) were plated in 96-well plates and incubated overnight. Different concentrations of test compounds were added to each cell for 24 h at 37 °C, and the 20 μL MTT solution was added and incubated for an additional 4 h. Then, 100 μL of DMSO was added to dissolve formazan precipitate after the solution was removed. The OD value was determined at 570 nm by Elx800 absorbance microplate reader (BioTek, Winooski, VT, USA). IC50 value (concentration at which cell survival equals 50% of control) = […].

[6] = pKa by potentiometric titration (Gemini Profiler, pION); type: physicochemical
Source text: (§2) Ketoprofen and propranolol were chosen as a control.
(§3) This is a new potentiometric acid−base titration method.

[7] = log D pH 7.4 by potentiometric titration (Gemini Profiler, pION); type: physicochemical
Source text: as §2, §3

[8] = Water solubility by pH-metric method (pSOL model 3); type: physicochemical; settings: for solubility: water, pH 7.4, aqueous buffer, thermodynamic from solid
Source text: as §3

[9] = Parallel artificial membrane permeability assay (PAMPA by pION); settings: pH 7.4
Method: (§6) Then we evaluated the physicochemical properties of a selected series of our compounds. […] All of them were evaluated with pKa, partition coefficient (log D, pH 7.4), membrane permeability (Pe, pH 7.4) and water solubility. […] Permeability (Pe) was determined by a standard parallel artificial membrane permeability assay (PAMPA by pION).
(§7) Permeability (Pe) was determined by a standard parallel artificial membrane permeability assay (PAMPA by pION).

HCT116 cells = test system: HCT116 cells; set-up: method as in PMID 24053646; settings: previously reported value; cited from earlier work
NQO1 [10] = assay: Western blot of NQO1 protein level in HCT116; type: cell-based, human; settings: tBHQ at 100 μM
Source text: (§4) Compound 3g was selected to evaluate its capacity to activate the expression of Nrf2-regulated NQO1 by measuring the protein levels in HCT116 via Western Blot. […] Those data further confirmed that 3g bearing pyrido[1,2-a]pyrazin scaffold could elevate both Nrf2 and downstream proteins of Nrf2 at the cellular level.
(§5) Anti-NQO1 (sc-271116), anti-Nrf2 (BS1258) and Anti-β-actin (AP0060) antibodies were purchased from Santa Cruz Biotechnology (Santa Cruz, CA, USA) and Bioworlde (Bioworlde, Visalia, CA, USA), respectively. The isolation of cell fractions and Western blotting were performed as detailed previously. Briefly, the extracts were separated by SDS-PAGE and then electrotransferred to PVDF membranes (Perkin Elmer, Northwalk, CT, USA). Membranes were blocked with 1% BSA for 1 h followed by incubation with a primary antibody at 4 °C overnight. Then they were washed and treated with a DyLight 800 labeled secondary antibody at 37 °C for 2 h. The membranes were screened through the odyssey infrared imaging System (LI-COR, Lincoln, NE, USA).

Nrf2 [11] = assay: Western blot of Nrf2 protein level in HCT116; type: cell-based, human; settings: HCT116, 10 μM
Source text: as §4, §5

physchem = settings: PAMPA, pH 7.4
Method: as §6, §7

pKa [6]	logD [7]	solubility [8]	melting point	Papp [9]	SMILES	fold induction at 0.1 µM [4]	fold induction at 1 µM [4]	fold induction at 5 µM [4]	fold induction at 10 µM ([4]; 10 μM)	fold induction at 50 µM [4]	fold induction at 100 µM ([4]; 100 μM)	IC50 at 24 h [5]	further results
2.9	0.61	46 µg/mL (≈ 103 µM)	228 to 230 °C	53 ± 7.29 ×10⁻⁶ cm/s	O=C(C=C1NCC2c3ccccc3CCN2C1=O)c1cccc(NC(=O)N2CCOCC2)c1 (stereo not shown) [Compound 1e, N-(3-(2-(4-oxo-1,6,7,11b-tetrahydro-2H-pyrazino[2,1-a]isoquinolin-3(4H)-ylidene)acetyl)phenyl)morpholine-4-carboxamide]	1.57 ± 0.05	1.97 ± 0.2	4.53 ± 0.28	5.48 ± 0.13	7.8 ± 3.94	35 ± 3.15	183 µM	–
3.02	1.22	170 µg/mL (≈ 574 µM)	172 to 174 °C	44 ± 5.42 ×10⁻⁶ cm/s	O=C(C=C1NCC2c3ccccc3CCN2C1=O)C1CCC1 (stereo not shown) [Compound 2c, 3-(2-cyclobutyl-2-oxoethylidene)-1,2,3,6,7,11b-hexahydro-4H-pyrazino[2,1-a]isoquinolin-4-one]	2.96 ± 0.48	3.04 ± 0.08	5.73 ± 1.44	13.3 ± 0.44	28 ± 1.39	29 ± 2.45	190 µM	–
3.42	0.98	530 µg/mL (≈ 1960 µM)	164 to 166 °C	66.4 ± 5.08 ×10⁻⁶ cm/s	O=C(C=C1NCC2CCCCN2C1=O)c1ccccc1 (stereo not shown) [Compound 3a, 3-(2-oxo-2-phenylethylidene)octahydro-4H-pyrido[1,2-a]pyrazin-4-one]	1.2 ± 0.49	4.09 ± 0.79	15.8 ± 2.08	16.4 ± 0.55	29.9 ± 8.49	40.6 ± 1.78	> 300 µM	–
3.1	1.23	290 µg/mL (≈ 1010 µM)	156 to 158 °C	54.5 ± 6 ×10⁻⁶ cm/s	O=C(C=C1NCC2CCCCN2C1=O)c1cccc(F)c1 (stereo not shown) [Compound 3b, 3-(2-(3-fluorophenyl)-2-oxoethylidene)octahydro-4H-pyrido[1,2-a]pyrazin-4-one]	0.7 ± 0.35	5.98 ± 2.31	24.8 ± 2.67	33	40 ± 0.69	4.41 ± 2.89	168 µM	ARE Inductivity in Luciferase Reporter Assay (induction fold) ([4]; 10 μM): 32.97 ± 3.68 fold
2.08	-0.34	3310 µg/mL (≈ 12700 µM)	152 to 154 °C	32.7 ± 1.92 ×10⁻⁶ cm/s	O=C(C=C1NCC2CCCCN2C1=O)c1ccco1 (stereo not shown) [Compound 3g, 3-(2-(furan-2-yl)-2-oxoethylidene)octahydro-4H-pyrido[1,2-a]pyrazin-4-one]	0.24 ± 0.15	1.5 ± 0.01	6.41 ± 3.14	27	41.6 ± 2.6	79.7	> 300 µM	ARE Inductivity in Luciferase Reporter Assay (induction fold) ([4]; 10 μM): 27.01 ± 2.46 fold; ARE Inductivity in Luciferase Reporter Assay (induction fold) ([4]; 100 μM): 79.74 ± 1.92 fold; NQO1 protein level (Western blot) (NQO1 [10]): induced by 3g in a concentration-dependent manner; Nrf2 protein level (Western blot) (Nrf2 [11]): elevated the protein level of Nrf2
–	–	–	182 to 184 °C	–	O=C(C=C1NCC2CCCCN2C1=O)c1cccs1 (stereo not shown) [Compound 3h, 3-(2-oxo-2-(thiophen-2-yl)ethylidene)octahydro-4H-pyrido[1,2-a]pyrazin-4-one]	2.06 ± 0.22	2.12 ± 0.31	8.3 ± 2.55	10.5 ± 3.82	28.9 ± 0.46	1.63 ± 0.25	> 300 µM	–
–	–	–	151 to 153 °C	–	O=C(C=C1NCC2CCCCN2C1=O)c1nccs1 (stereo not shown) [Compound 3i, 3-(2-oxo-2-(thiazol-2-yl)ethylidene)octahydro-4H-pyrido[1,2-a]pyrazin-4-one]	1.52 ± 0.87	4.02 ± 3.05	6.41 ± 1.48	9.28 ± 0.55	13.5 ± 0.8	16.7 ± 1.39	> 300 µM	–
–	–	–	151 to 153 °C	–	O=C(C=C1NCC2CCCCN2C1=O)c1cccc2ccccc12 (stereo not shown) [Compound 3j, 3-(2-(naphthalen-1-yl)-2-oxoethylidene)octahydro-4H-pyrido[1,2-a]pyrazin-4-one]	1.7 ± 0.19	2.34 ± 0.53	2.54 ± 0.99	3.52 ± 0.57	3.85 ± 0.34	1.96 ± 0.71	264 µM	–

Continued, molecule first:

SMILES	pKa [6]	logD [7]	solubility [8]	melting point	Papp [9]	fold induction at 0.1 µM [4]	fold induction at 1 µM [4]	fold induction at 5 µM [4]	fold induction at 10 µM ([4]; 10 μM)	fold induction at 50 µM [4]	fold induction at 100 µM ([4]; 100 μM)	IC50 at 24 h [5]	further results
O=C(/C=C1\NCC2c3ccccc3CCN2C1=O)c1ccccc1 (stereo not shown) [Compound 1]	–	–	–	–	–	–	–	–	–	–	–	–	induction of ARE (previously reported) [1]: 26.87 fold; expression of NQO1 (NQO1 [2]): induce; development of colorectal adenomas (colorectal adenomas): significantly inhibit; nuclear translocation of Nrf2 (Nrf2 [3]): induce the nuclear translocation of Nrf2; expression of HO-1 (heme oxygenase-1 (HO-1)): induce
O=C(/C=C1\NCC2c3ccccc3CCN2C1=O)c1cccc(F)c1 (stereo not shown) [Compound 2]	2.78	2.38	22 µg/mL (≈ 65.4 µM)	–	11.7 ± 2.2 ×10⁻⁶ cm/s	1.45 ± 0.39	6.2 ± 4.06	16.2 ± 0.3	31.2	7.51 ± 1.32	12.2 ± 3.32	165 µM	ARE Inductivity in Luciferase Reporter Assay (induction fold) ([4]; 10 μM): 31.17 ± 4.14 fold; water solubility ([8]; pH 7.4): 22 µg/mL (≈ 65.4 µM); induction of ARE (previously reported) [1]: 33.00 fold; IC50 (HCT116 cells): > 100 µM
CC(C)NCC(O)COc1cccc2ccccc12 (stereo not shown) [Propranolol]	–	–	–	–	–	–	–	–	–	–	–	–	Papp (physchem): 64.7 ± 8.58 ×10⁻⁶ cm/s
CC(C)(C)c1cc(O)ccc1O [tBHQ, tert-butylhydroquinone, reference compound]	–	–	–	–	–	1 ± 0.01	1.8 ± 0.66	1.67 ± 0.56	1.98 ± 0.29	4.45 ± 1.15	10.8	–	ARE Inductivity in Luciferase Reporter Assay (induction fold) ([4]; 100 μM): 10.79 ± 3.13 fold; NQO1 protein level (Western blot) (NQO1 [10]): induced expression of NQO1
